Test system: advanced solid tumors
Experiment: Anti-tumor activity in patients (RECIST best response, PFS, OS)
Assay type: in vivo, human
Protocol: Among 64 pts enrolled in the trial, 16 failed screening and 48 (75%) were treated with FN-1501 at one of the dose levels tested. Eligible pts were ≥18 years of age with (a) relapsed or refractory AML that had exhausted or was ineligible for therapeutic options, or with ≥5% blasts in the bone marrow according to World Health Organization (WHO) 2016 criteria; or (b) solid tumors evaluable per RECIST v1.1 that had exhausted (or were ineligible for) therapeutic options likely to convey clinical benefit. Other inclusion criteria included Eastern Cooperative Oncology Group (ECOG) performance status (PS) of <2 and life expectancy ≥3 months. Pts with a clinically controlled central nervous system (CNS) tumor or metastasis and adequate organ function were eligible to participate. Ongoing use of strong CYP3A inhibitors or inducers was exclusionary unless participants were willing and able to change to use of an equivalent medication without this profile. Other exclusion criteria included current or recent major surgical procedures, anticancer therapy (chemotherapy, immunotherapy), biologic, live virus vaccine, or investigational therapy within 21 days prior to initiation of the study treatment. For patients in the AML cohort, acute promyelocytic leukemia (APML), chronic myelogenous leukemia in blast crisis (BCR-ABL), or active CNS leukemia were exclusionary.
Descriptive statistics were used for all safety, PK, and efficacy parameters. Data were summarized using descriptive statistics (number of pts, mean, median, standard deviation, minimum, and maximum) for continuous variables and using frequencies and percentages for discrete variables. Time-to-event variables were summarized using Kaplan–Meier methods and figures for the estimated median time.

## CN1CCN(Cc2ccc(NC(=O)c3[nH]ncc3Nc3ncnc4[nH]ccc34)cc2)CC1 [FN-1501]
2.5 mg/day, N = 4, ITT
  Complete Response, best RECIST response, n (%): 0
  DCR: 0.0%
  Landmark Progression Free Survival Rate at 3 months (Table S6, Overall Survival): 37.5%
  Landmark Progression Free Survival Rate at 6 months (Table S6, Overall Survival): 37.5%
  Landmark Progression Free Survival Rate at 9 months (Table S6, Overall Survival): 37.5%
  Landmark Progression Free Survival Rate at 12 months (Table S6, Overall Survival): 37.5%
  Median overall survival: 2.0 months
  Median progression-free survival: 1.8 months
  ORR: 0.0%
  Partial Response, best RECIST response, n (%): 0
  Progression Free Survival Rate at 3 months: 0.0%
  Progression Free Survival Rate at 6 months: 0.0%
  Progression Free Survival Rate at 9 months: 0.0%
  Progression Free Survival Rate at 12 months: 0.0%
  Progressive Disease, best RECIST response, n (%): 3
  Stable Disease, best RECIST response, n (%): 0
5 mg/day, N = 3, ITT
  Complete Response, best RECIST response, n (%): 0
  DCR: 0.0%
  Landmark Progression Free Survival Rate at 3 months (Table S6, Overall Survival): 50.0%
  Landmark Progression Free Survival Rate at 6 months (Table S6, Overall Survival): 0.0%
  Landmark Progression Free Survival Rate at 9 months (Table S6, Overall Survival): 0.0%
  Landmark Progression Free Survival Rate at 12 months (Table S6, Overall Survival): 0.0%
  Median overall survival: 2.6 months
  Median progression-free survival: 1.7 months
  ORR: 0.0%
  Partial Response, best RECIST response, n (%): 0
  Progression Free Survival Rate at 3 months: 0.0%
  Progression Free Survival Rate at 6 months: 0.0%
  Progression Free Survival Rate at 9 months: 0.0%
  Progression Free Survival Rate at 12 months: 0.0%
  Progressive Disease, best RECIST response, n (%): 2
  Stable Disease, best RECIST response, n (%): 0
10 mg/day, N = 5, ITT
  Complete Response, best RECIST response, n (%): 0
  DCR: 20.0%
  Landmark Progression Free Survival Rate at 3 months (Table S6, Overall Survival): 60.0%
  Landmark Progression Free Survival Rate at 6 months (Table S6, Overall Survival): 60.0%
  Landmark Progression Free Survival Rate at 9 months (Table S6, Overall Survival): 60.0%
  Landmark Progression Free Survival Rate at 12 months (Table S6, Overall Survival): 60.0%
  Median progression-free survival: 1.4 months
  ORR: 0.0%
  Partial Response, best RECIST response, n (%): 0
  Progression Free Survival Rate at 3 months: 20.0%
  Progression Free Survival Rate at 6 months: 0.0%
  Progression Free Survival Rate at 9 months: 0.0%
  Progression Free Survival Rate at 12 months: 0.0%
  Progressive Disease, best RECIST response, n (%): 2
  Stable Disease, best RECIST response, n (%): 1 (20)
15 mg/day, N = 3, ITT
  Complete Response, best RECIST response, n (%): 0
  DCR: 100.0%
  Median progression-free survival: 4.1 months
  ORR: 0.0%
  Partial Response, best RECIST response, n (%): 0
  Progression Free Survival Rate at 6 months: 33.3%
  Progression Free Survival Rate at 9 months: 0.0%
  Progression Free Survival Rate at 12 months: 0.0%
  Progressive Disease, best RECIST response, n (%): 0
  Stable Disease, best RECIST response, n (%): 3 (100)
22.5 mg/day, N = 4, ITT
  Complete Response, best RECIST response, n (%): 0
  DCR: 50.0%
  Landmark Progression Free Survival Rate at 3 months (Table S6, Overall Survival): 50.0%
  Landmark Progression Free Survival Rate at 6 months (Table S6, Overall Survival): 50.0%
  Landmark Progression Free Survival Rate at 9 months (Table S6, Overall Survival): 25.0%
  Landmark Progression Free Survival Rate at 12 months (Table S6, Overall Survival): 25.0%
  Median overall survival: 5.4 months
  Median progression-free survival: 5.0 months
  ORR: 0.0%
  Partial Response, best RECIST response, n (%): 0
  Progression Free Survival Rate at 3 months: 50.0%
  Progression Free Survival Rate at 6 months: 50.0%
  Progression Free Survival Rate at 9 months: 25.0%
  Progression Free Survival Rate at 12 months: 25.0%
  Progressive Disease, best RECIST response, n (%): 2 (50)
  Stable Disease, best RECIST response, n (%): 2 (50)
30 mg/day, N = 3, ITT
  Complete Response, best RECIST response, n (%): 0
  DCR: 100.0%
  Median progression-free survival: 3.4 months
  ORR: 0.0%
  Partial Response, best RECIST response, n (%): 0
  Progression Free Survival Rate at 3 months: 50.0%
  Progression Free Survival Rate at 6 months: 0.0%
  Progression Free Survival Rate at 9 months: 0.0%
  Progression Free Survival Rate at 12 months: 0.0%
  Progressive Disease, best RECIST response, n (%): 0
  Stable Disease, best RECIST response, n (%): 3 (100)
40 mg/day cohort, efficacy evaluable population
  Patients with best response of partial response (PR) by RECIST: 25%
40 mg/day, N = 4, ITT
  Complete Response, best RECIST response, n (%): 0
  DCR: 50.0%
  Landmark Progression Free Survival Rate at 3 months (Table S6, Overall Survival): 75.0%
  Landmark Progression Free Survival Rate at 6 months (Table S6, Overall Survival): 75.0%
  Landmark Progression Free Survival Rate at 9 months (Table S6, Overall Survival): 75.0%
  Landmark Progression Free Survival Rate at 12 months (Table S6, Overall Survival): 75.0%
  Median progression-free survival: 2.6 months
  ORR: 25.0%
  Partial Response, best RECIST response, n (%): 1
  Progression Free Survival Rate at 3 months: 33.3%
  Progression Free Survival Rate at 6 months: 0.0%
  Progression Free Survival Rate at 9 months: 0.0%
  Progression Free Survival Rate at 12 months: 0.0%

— PMC10177510, “A Multicenter, Open-Label, Phase I/II Study of FN-1501 in Patients with Advanced Solid Tumors” (Cancers, 2023)
